{"source": "patent US7875638B2", "about": "“Synthesis of epothilones, intermediates thereto, analogues and uses thereof” (Sloan-Kettering Institute for Cancer Research, priority 2002, dated 2011)", "key": {"[1]": {"tested_on": "RPMI-8226 (human multiple myeloma cell line)", "assay": "Global gene expression (Affymetrix chip AU133 2.0)", "type": "cell-based"}, "primary CD138 MM cells": {"tested_on": "primary CD138 MM cells", "assay": "Apoptosis of primary myeloma cells", "type": "cell-based, human", "details": "cells obtained from patient marrow"}, "caspase 3": {"tested_on": "caspase 3", "assay": "Caspase 3 activation by Western blot", "type": "cell-based, human", "details": "myeloma cells", "source_text": "It is not clear whether caspase is involved in this process. Firstly, we investigated the activation of caspase 3, an effector caspase in the caspase pathway, in myeloma cells, by Western blot. […] Immunohistochemical staining of CAG myeloma cells using antibody specific to cleaved caspase-3 was used to show cytoplasmic and perinuclear localization features in apoptotic cells. […] Secondly, we attempted to assay the activity of caspase 8 and 9, initiator caspase in the caspase pathway, by fluorometric method. […] Note that increased caspase 9 activity was more prominent than caspase 8. The signals triggering the activation of caspase 8 or 9 are actively under investigation."}, "[2]": {"tested_on": "myeloma cell lines (RPMI8226, CAG)", "assay": "XTT cell proliferation, myeloma cell lines", "type": "cell-based, human"}, "[3]": {"tested_on": "lymphoma lines (SKIDLBCL and RL)", "assay": "XTT cell proliferation, lymphoma lines", "type": "cell-based, human"}, "[4]": {"tested_on": "paclitaxel resistant human lung carcinoma A549/Taxol xenograft", "details": "20 mg/kg, Q2Dx7, 6 hr-i.v. infusion; cited from earlier work"}, "in vitro [5]": {"assay": "in vitro", "details": "mouse, plasma", "description": "(§1) Stability of epothilones in mouse and in human liver S9 fraction. The stability study was carried out with a fully automated HPLC system which consisted of a Prospekt-2 (Spark Holland, Netherlands) sample preparation system and an Agilent 1100 HPLC system. Briefly, the Prospekt 2 picked up a C8 extraction cartridge and washed it with acetonitrile and water. The Agilent autosampler, set at 37° C., picked up 20 μl of the sample, loaded it onto the cartridge, washed it with water, then the Prospekt-2 diverted the mobile phase stream through the extraction cartridge onto the analytical column, Reliance Stable Bond C8 4×80 mm with guard column (MacMod, Chadds Ford, Pa.) and the eluent was monitored at 250 nm. […] Sample preparation involved the addition of equal volumes of plasma to PBS for a total volume of 300-400 μl, filtered, and the addition of 0.5-2 μl of the substrate (20 mM) to achieve about 30-50 mAU at 250 nm in the HPLC analysis. For pooled human liver microsome S9 fraction (Xeno Tech, Lenex, Kans.), 20 μl (400 μg) or S9 fraction was mixed with 280 μl of PBS then proceeded as above. The sampling period was controlled by the autosampler and peak area data were collected to compare the rate of disappearance of the parent compound.\n(§2) Stability of epothilones in mouse and in human liver S9 fraction: The stability study was carried out with a fully automated HPLC system which consisted of a Prospekt-2 (Spark Holland, Netherlands) sample preparation system and an Agilent 1100 HPLC system. Briefly, the Prospekt 2 picked up a C8 extraction cartridge and washed it with acetonitrile and water. The Agilent autosampler, set at 37° C., picked up 20 μl of the sample, loaded it onto the cartridge, washed it with water, then the Prospekt-2 diverted the mobile phase stream through the extraction cartridge onto the analytical column, Reliance Stable Bond C8 4×80 mm with guard column (MacMod, Chadds Ford, Pa.) and the eluent was monitored at 250 nm. […] Sample preparation involves the addition of equal volumes of plasma to PBS for a total volume of 400 μl, filtered, and the addition of 0.5-2 μl of the substrate (20 mM) to achieve about 30-50 mAU at 250 nm in the HPLC analysis. For pooled human liver microsome S9 fraction (Xeno Tech, Lenex, Kans.), 20 μl (400 μg) or S9 fraction was mixed with 280 μl of PBS then proceeds as above. The sampling period was controlled by the autosampler and peak area data were collected to compare the rate of disappearance of the parent compound."}, "in vitro [6]": {"assay": "in vitro", "details": "human, s9", "description": "as §1, §2"}, "[7]": {"tested_on": "human mammary carcinoma MX-1 xenograft", "assay": "MX-1 xenograft in nude mice", "details": "for Body weight on the 16th day after treatment, % of the pretreatment control: Q2Dx6"}, "[8]": {"tested_on": "human lung carcinoma xenograft (A549)", "assay": "A549 xenograft in nude mice"}, "[9]": {"tested_on": "human colon carcinoma HCT-116 xenograft", "assay": "HCT-116 xenograft in nude mice", "details": "for Tumor relapse during follow-up to D200: Fludelone 20 and 30 mg/kg; for Tumor free following the cessation of treatment: mouse, in vivo"}, "[10]": {"tested_on": "paclitaxel resistant human lung carcinoma A549/Taxol xenograft", "assay": "A549/Taxol xenograft in nude mice"}, "CAG myeloma cells": {"tested_on": "CAG myeloma cells", "assay": "Disseminated CAG xenograft myeloma mice", "details": "20 mg/kg", "description": "10×10^6 CAG myeloma cells engineered with Luc-eGFP-TK fusion gene were injected intravenously into the mouse-tail vein, and the treatment was started when decent myeloma cells implantation was detected by bioluminescence imaging on day 7."}, "[11]": {"details": "18 hr gene difference, Fludelone vs dEpoB treated cells"}}, "note": "Entries after “also recorded” stand apart in the source; their conditions may differ. Marks after values point to notes of the source that are not given here.", "data": [{"smiles": "C/C(=C\\c1csc(C)n1)[C@@H]1C/C=C(/C(F)(F)F)C/C=C/[C@H](C)[C@H](O)[C@@H](C)C(=O)C(C)(C)[C@@H](O)CC(=O)O1", "note": "[Compound 29, 26-trifluoro-trans-9,10-dehydro-12,13-desoxyepothilone B]", "values": [{"measurement": "Fold change in expression, TMEM1", "setting": "[1]; 18 h", "value": "+2.14 fold"}, {"measurement": "Fold change in expression, TRA2A", "setting": "[1]; 18 h", "value": "+3.03 fold"}, {"measurement": "Fold change in expression, TRIO", "setting": "[1]; 18 h", "value": "+4.29 fold"}, {"measurement": "Fold change in expression, VEZATIN", "setting": "[1]; 18 h", "value": "+2.00 fold"}, {"measurement": "Fold change in expression, ZF (HCF-binding transcription factor)", "setting": "[1]; 18 h", "value": "−6.50", "unit": "fold"}, {"measurement": "Fold change in expression, ZFY", "setting": "[1]; 18 h", "value": "+2.14 fold"}, {"measurement": "Fold change, CEB1", "setting": "[1]; 18 h", "value": "−2.00", "unit": "fold"}, {"measurement": "Fold change, DUSP4", "setting": "[1]; 18 h", "value": "−2.14", "unit": "fold"}, {"measurement": "Fold change, HMT-1", "setting": "[1]; 18 h", "value": "+11.3 fold"}, {"measurement": "Fold change, IFIT1", "setting": "[1]; 18 h", "value": "−2.00", "unit": "fold"}, {"measurement": "Fold change, OAS2", "setting": "[1]; 18 h", "value": "−2.00", "unit": "fold"}, {"measurement": "Fold change, PLSCR1", "setting": "[1]; 18 h", "value": "−2.00", "unit": "fold"}, {"measurement": "Fold change, PPAP2C", "setting": "[1]; 18 h", "value": "−2.14", "unit": "fold"}, {"measurement": "Fold change, TRIM22", "setting": "[1]; 18 h", "value": "−2.00", "unit": "fold"}, {"measurement": "Fold change, GIP3", "setting": "[1]; [11]", "value": "−5.28", "unit": "fold"}, {"measurement": "Fold change, IFI 27", "setting": "[1]; [11]", "value": "−5.28", "unit": "fold"}, {"measurement": "Fold change, IFITM1", "setting": "[1]; [11]", "value": "−3.25", "unit": "fold"}, {"measurement": "Fold change, MX1", "setting": "[1]; [11]", "value": "−2.30", "unit": "fold"}, {"measurement": "Fold change in expression, G1P3", "setting": "[1]; 18 hrs, ×10 IC50 dose, vs control", "value": "−3.73", "unit": "fold"}, {"measurement": "Tumor apoptosis within 24 hrs", "setting": "primary CD138 MM cells", "value": "induced tumor apoptosis within 24 hrs"}, {"measurement": "Cleaved caspase 3 (Western blot)", "setting": "caspase 3", "value": "increased 17 kd cleaved caspase 3"}, {"measurement": "Potency relative to dEpoB on MM cell lines", "setting": "[2]", "value": "~5", "unit": "fold"}, {"measurement": "IC50", "setting": "[2]; Homo sapiens, RPMI-8226, read-out: IC50, myeloma cell lines (RPMI8226, CAG)", "value": "7.6 to 36.7", "unit": "nM"}, {"measurement": "Inhibitory doses in two NHL lines relative to doses effective in MM", "setting": "[3]", "value": "5-10 fold"}, {"measurement": "IC50", "setting": "[3]; Homo sapiens, XTT", "value": "60 to 80", "unit": "nM"}, {"measurement": "Effect on A549/Taxol xenograft (recent report)", "setting": "[4]", "value": "complete tumor growth suppression but failed to achieve tumor disappearance"}, {"measurement": "half-life", "setting": "in vitro [5]", "value": "3.53 ± 1.47", "unit": "h"}, {"measurement": "half-life", "setting": "in vitro [6]", "value": "10.5 ± 2.3", "unit": "h"}, {"measurement": "Body weight gain during the last three doses", "setting": "[7]; 10 mg/kg, Q2DX12", "value": 6, "unit": "%"}, {"measurement": "Maximal body weight decrease", "setting": "[7]; 10 mg/kg, Q2DX12", "value": 12, "unit": "%"}, {"measurement": "Tumor free after Q2Dx6 6 hr-iv. infusion (mice)", "setting": "[7]; 20 mg/kg", "value": "four out of four"}, {"measurement": "Therapeutic outcome in MX-1 xenograft model", "setting": "[7]; 20 mg/kg and 30 mg/kg, Q2Dx6, 6 hour infusions", "value": "curative"}, {"measurement": "Time for body weight to return to pretreatment control level after suspension of treatment", "setting": "[7]; 20 mg/kg or 30 mg/kg Q2Dx6, i.v.-6 hr infusion", "value": "12 to 18", "unit": "days"}, {"measurement": "Body weight on the 16th day after treatment, % of the pretreatment control", "setting": "[7]; 20 mg/kg", "value": 109, "unit": "%"}, {"measurement": "Reappearance of the tumor on the 20th day after stopping treatment", "setting": "[7]; 20 mg/kg, Q2Dx6, 6 hour infusion", "value": "no reappearance"}, {"measurement": "Tumor reappearance on 27th day after stopping treatment (mice)", "setting": "[7]; 20 mg/kg, Q2Dx6, 6 hr iv infusion", "value": "2 out of 4"}, {"measurement": "Tumor reappearance on 27th day after stopping treatment (mice)", "setting": "[7]; 20 mg/kg, Q2Dx6, 6 hr iv infusion, listed as 26-trifluoro-9,10-dehydro-12,13-dexoxy-epothilone B", "value": "2/4"}, {"measurement": "Transient drop in body weight", "setting": "[7]; 20 mg/kg, Q2Dx6, 6 hr. iv infusion", "value": "up to 26%"}, {"measurement": "Decrease in body weight without lethality", "setting": "[7]; 30 mg/kg", "value": 27, "unit": "%"}, {"measurement": "Body weight on the 16th day after treatment, % of the pretreatment control", "setting": "[7]; 30 mg/kg", "value": 98, "unit": "%"}, {"measurement": "Tumor disappearance earlier than the 20 mg/kg dosage", "setting": "[7]; 30 mg/kg, Q2Dx6, 6 hour iv infusion", "value": "2 to 3", "unit": "days"}, {"measurement": "Relapse after suspension of treatment", "setting": "[7]; 30 mg/kg, Q2Dx6, 6 hr iv infusion", "value": "absence of any relapse for over two months"}, {"measurement": "Maximal tolerated dose", "setting": "[7]; Q2Dx6, 6 hour infusions", "value": "~30", "unit": "mg/kg"}, {"measurement": "Cell kill", "setting": "[7]; assuming a tumor doubling time of 4 days", "value": "> 8.5", "unit": "log"}, {"measurement": "Tumor relapse after cessation of treatment", "setting": "[7]; extra large MX-1, 25 mg/kg Q3Dx5 then Q3Dx4", "value": "No relapse was observed on D180"}, {"measurement": "Relapse (49 days after stopping treatment)", "setting": "[7]; female nude mice, large MX-1, 30 mg/kg orally", "value": "no relapse on D115"}, {"measurement": "Tumor disappearance", "setting": "[7]; female nude mice, large MX-1, 30 mg/kg orally Q2Dx7 then Q2Dx9", "value": "All three mice's tumor disappeared on D40, 45 and 48"}, {"measurement": "Doses required for MX-1 tumor disappearance", "setting": "[7]; mouse, in vivo", "value": "nine"}, {"measurement": "Duration of MX-1 tumor disappearance", "setting": "[7]; mouse, in vivo", "value": 64, "unit": "days"}, {"measurement": "Mice relapsed on day 10 after suspension of treatment", "setting": "[7]; mouse, in vivo", "value": "0/4"}, {"measurement": "Mouse tumors disappeared, large MX-1 tumors (0.5 g)", "setting": "[7]; mouse, in vivo", "value": "4/4"}, {"measurement": "Relapse after suspension of treatment", "setting": "[7]; mouse, in vivo", "value": "no relapse after 62 days"}, {"measurement": "Tumor disappeared during the resting period (mice)", "setting": "[7]; mouse, in vivo", "value": "2 out of 5"}, {"measurement": "Tumor free after Q2Dx6 6 hr-iv. infusion (mice)", "setting": "[7]; mouse, in vivo", "value": "4/4"}, {"measurement": "Tumor reappeared on day 10 after administration (mice)", "setting": "[7]; mouse, in vivo", "value": "0/4^[b]"}, {"measurement": "Tumor relapse after cessation of treatment", "setting": "[7]; mouse, in vivo", "value": "no tumor relapse in all 5 animals on D165"}, {"measurement": "Tumor shrinkage during the resting period of 9 days (D34-D43)", "setting": "[7]; mouse, in vivo", "value": "> 99.3", "unit": "%"}, {"measurement": "Tumor shrinkage", "setting": "[7]; mouse, in vivo, iv, 25 mg/kg", "value": "> 97.4", "unit": "%"}, {"measurement": "Tumor disappearance (mice)", "setting": "[7]; mouse, in vivo, po, 30 mg/kg", "value": "2 out of 4"}, {"measurement": "Tumor disappearance after additional two doses (mice)", "setting": "[7]; mouse, in vivo, po, 30 mg/kg", "value": "4 out of 4"}, {"measurement": "Tumor free following the cessation of treatment", "setting": "[7]; mouse, in vivo, listed as 26-trifluoro-9,10-trans-dehdyro-epothilone D", "value": 3.8, "unit": "months"}, {"measurement": "Tumor free following the cessation of treatment", "setting": "[7]; mouse, in vivo, listed as Fludelone", "value": 4.3, "unit": "months"}, {"measurement": "Body weight decrease without lethality", "setting": "[8]; 25 mg/kg, Q2DX6, twice", "value": "≤ 35", "unit": "%"}, {"measurement": "Tumor eradication", "setting": "[8]; 29: after two more doses, dEpoB: 30 mg/kg, Q2Dx6", "value": "4 of the 4"}, {"measurement": "Maximal body weight loss without lethality", "setting": "[9]; 30 mg/kg, end of the 2nd cycle (D29)", "value": 30, "unit": "%"}, {"measurement": "Tumor relapse during follow-up to D200", "setting": "[9]; Taxol 20 mg/kg", "value": "no tumor relapse"}, {"measurement": "Tumor relapse during follow-up to D200", "setting": "[9]; Taxol 20 mg/kg, listed as F3-deH-dEpoB", "value": "no tumor relapse in 4 out of 4 mice on D200"}, {"measurement": "Tumor disappearance (mice)", "setting": "[9]; Q2Dx4, 6 hr-i.v. infusion for 3 cycles, F3-deH-dEpoB 20 and 30 mg/kg, Taxol 20 mg/kg", "value": "4 out of 4"}, {"measurement": "Tumor free following the cessation of treatment", "setting": "[9]; listed as 26-trifluoro-9,10-trans-dehdyro-epothilone D", "value": "over 5.2 months"}, {"measurement": "Tumor free following the cessation of treatment", "setting": "[9]; listed as Fludelone", "value": "over 5.3 months"}, {"measurement": "Body weight recovery upon suspension of drug treatment, % of the pretreatment control", "setting": "[10]; 20 mg/kg", "value": 90, "unit": "%"}, {"measurement": "Maximal body weight decrease", "setting": "[10]; 20 mg/kg", "value": 24, "unit": "%"}, {"measurement": "Tumor growth suppression", "setting": "[10]; 29: 20 mg/kg, 28: 4 mg/kg", "value": "totally suppressed"}, {"measurement": "Survival after transplanting CAG cells (Kaplan-Meier)", "setting": "CAG myeloma cells", "value": "> 80", "unit": "days"}, {"measurement": "Survival versus controls", "setting": "CAG myeloma cells; intraperitoneal", "value": "at least doubled the survival time than controls"}, {"measurement": "Tumor burden by bioluminescence imaging", "setting": "CAG myeloma cells; listed as Fludelone", "value": "significant decreased tumor photon emissions; also recorded: significantly decreased tumor burden"}]}]}
